Each structure is given as a SMILES string.

In general, IC50 refers to the concentration that inhibits the measured activity by half. The low end stands for greater potency in that assay, the high end for weaker potency in that assay.

For the assay, the target named is GST-Xa-hAAK1 (Homo sapiens (Human), UniProt Q2M2I8). Briefly: AAK1 Kinase Assay.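 Further: each compound tested across an eleven-point concentration series, with IC50 obtained through non-linear regression fitting.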 Conditions: bacterially expressed GST-Xa-hAAK1 3.5 nM; ATP 22 μM; peptide substrate 1.5 μM; 3 hours at room temperature; Caliper LabChip 3000. The assay is classed as biochemical.
Sequence of GST-Xa-hAAK1 (Q2M2I8 whole entry): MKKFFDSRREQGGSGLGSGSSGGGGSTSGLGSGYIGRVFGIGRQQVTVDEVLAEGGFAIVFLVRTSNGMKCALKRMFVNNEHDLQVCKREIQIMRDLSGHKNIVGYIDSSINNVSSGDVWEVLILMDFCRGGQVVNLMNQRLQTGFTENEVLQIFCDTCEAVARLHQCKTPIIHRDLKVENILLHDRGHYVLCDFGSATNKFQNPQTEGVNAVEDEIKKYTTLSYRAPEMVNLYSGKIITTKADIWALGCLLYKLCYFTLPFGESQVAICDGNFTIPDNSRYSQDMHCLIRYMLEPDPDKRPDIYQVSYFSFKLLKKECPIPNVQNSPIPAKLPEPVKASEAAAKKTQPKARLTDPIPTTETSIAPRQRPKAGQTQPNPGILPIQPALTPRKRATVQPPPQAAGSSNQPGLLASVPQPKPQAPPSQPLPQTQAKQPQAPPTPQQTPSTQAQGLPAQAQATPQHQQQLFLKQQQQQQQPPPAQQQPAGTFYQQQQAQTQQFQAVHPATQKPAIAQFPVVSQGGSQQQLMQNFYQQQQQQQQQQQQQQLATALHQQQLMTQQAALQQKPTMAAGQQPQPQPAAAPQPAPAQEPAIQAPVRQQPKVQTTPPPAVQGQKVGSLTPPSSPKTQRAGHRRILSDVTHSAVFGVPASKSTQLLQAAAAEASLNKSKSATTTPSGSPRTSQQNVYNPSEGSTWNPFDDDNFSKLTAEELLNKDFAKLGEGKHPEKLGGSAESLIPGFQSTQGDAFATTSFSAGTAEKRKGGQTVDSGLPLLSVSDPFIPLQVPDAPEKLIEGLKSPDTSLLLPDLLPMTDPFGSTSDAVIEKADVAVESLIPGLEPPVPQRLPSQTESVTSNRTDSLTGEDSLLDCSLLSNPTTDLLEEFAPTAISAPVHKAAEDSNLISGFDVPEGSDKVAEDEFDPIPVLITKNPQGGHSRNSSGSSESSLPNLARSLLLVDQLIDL
`CC(C)C[C@](C)(N)COc1ncc(-c2ccnc3cc(Cl)ccc23)cc1C(F)F` [Example 197, (S)-1-((5-(7-chloroquinolin-4-yl)-3-(difluoromethyl)pyridin-2-yl)oxy)-2,4-dimethylpentan-2-amine] registered a concentration for half-maximal inhibition (IC50) of 0.31 nM.

Consider `COC(=O)Nc1cc(-c2cc(OC)c(OC[C@@](C)(N)CC(C)C)cn2)ccn1` [Example 206, (S)-methyl (5-((2-amino-2,4-dimethylpentyl)oxy)-4-methoxy-[2,4′-bipyridin]-2′-yl)carbamate], for which the IC50 worked out at 4.3 nM.

The molecule `CC(C)C[C@](C)(N)COc1ncc(-c2ccnc3ccccc23)cc1C(F)(F)F` [Example 219, (S)-2,4-dimethyl-1-((5-(quinolin-4-yl)-3-(trifluoromethyl)pyridin-2-yl)oxy)pentan-2-amine] gave a concentration for half-maximal inhibition (IC50) of 0.59 nM.

For the molecule `Cc1cc(-c2cc(C(F)F)c(OC[C@@](C)(O)CC(C)C)cn2)ccn1` [Example 178, (S)-1-((4-(difluoromethyl)-2′-methyl-[2,4′-bipyridin]-5-yl)oxy)-2,4-dimethylpentan-2-ol], 150 nM corresponded to half-maximal inhibition (IC50).

On to `CC(C)C[C@](C)(N)COc1ncc(-c2ccnc3ccccc23)cc1F` [Example 98, (S)-1-((3-fluoro-5-(quinolin-4-yl)pyridin-2-yl)oxy)-2,4-dimethylpentan-2-amine], for which the IC50 was 10 nM.

`CC(=O)Nc1cc(-c2cc(F)c(OC[C@@H](N)CC(C)C)cc2F)ccn1` [Example 12, (S)—N-(4-(4-((2-amino-4-methylpentyl)oxy)-2,5-difluorophenyl)pyridin-2-yl)acetamide] gave an IC50 of 1.6 nM.

`CC(C)C[C@](C)(N)COc1ccc(-c2ccnc(F)c2)cc1C#N` [Example 94, (S)-2-((2-amino-2,4-dimethylpentyl)oxy)-5-(2-fluoropyridin-4-yl)benzonitrile] yielded an IC50 of 4.7 nM.

With `CC(C)C[C@](C)(N)COc1ccc(-c2ccnc(F)c2Cl)cc1C(F)(F)F` [Example 39, (S)-1-(4-(3-chloro-2-fluoropyridin-4-yl)-2-(trifluoromethyl)phenoxy)-2,4-dimethylpentan-2-amine], inhibition was half-maximal at 3.2 nM (IC50).

In turn, `Cc1cc(-c2ccnc3cc(F)ccc23)ncc1OC[C@@](C)(N)CC(C)C` [Example 232, (S)-1-((6-(7-fluoroquinolin-4-yl)-4-methylpyridin-3-yl)oxy)-2,4-dimethylpentan-2-amine] displayed an IC50 of 0.41 nM.

Consider `Cc1cc(-c2ccc(OC[C@@H](N)CC(C)C)c(-c3ccno3)c2)ccn1` [Example 18, (S)-1-(2-(isoxazol-5-yl)-4-(2-methylpyridin-4-yl)phenoxy)-4-methylpentan-2-amine], for which the IC50 is 5 nM. This IC50 is about 12-fold higher than that of the molecule before.

Regarding `CC(=O)Nc1cccc(-c2ccc(OCC(C)(N)CC(C)C)c(C)c2)c1` (stereo not shown) [Example 250, N-(4′-((2-amino-2,4-dimethylpentyl)oxy)-3′-methyl-[1,1′-biphenyl]-3-yl)acetamide], the midpoint of inhibition, the IC50, lay at 659 nM.

As to `COc1cnccc1-c1ccc(OC[C@@](C)(N)CC(C)C)c(C(F)(F)F)c1` [Example 46, (S)-1-(4-(3-methoxypyridin-4-yl)-2-(trifluoromethyl)phenoxy)-2,4-dimethylpentan-2-amine], the IC50 was determined as 0.86 nM.

The molecule `Cc1cc(-c2cc(C(F)(F)F)c(OC[C@](C)(N)CC(C)C)cn2)ccn1` [Example 164, (R)-2,4-dimethyl-1-((2′-methyl-4-(trifluoromethyl)-[2,4′-bipyridin]-5-yl)oxy)pentan-2-amine] displayed a concentration for half-maximal inhibition (IC50) of 254 nM. Against the preceding molecule, the IC50 is about 300-fold higher.

Take `COC(=O)Nc1cc(-c2ccc(OC[C@](C)(N)CC(C)C)c(C)n2)ccn1` [Example 173, (R)-methyl (5-((2-amino-2,4-dimethylpentyl)oxy)-6-methyl-[2,4′-bipyridin]-2′-yl)carbamate]: the IC50 was determined as 42 nM.

In turn, `COC(=O)Nc1cc(-c2ccc(OC[C@@](C)(N)CC(C)C)c(C#N)c2)c(F)cn1` [Example 106, (S)-methyl (4-(4-((2-amino-2,4-dimethylpentyl)oxy)-3-cyanophenyl)-5-fluoropyridin-2-yl)carbamate] had an IC50 of 0.62 nM.

As for `COC(=O)Nc1cc(-c2cc(C)c(OC[C@@](C)(N)CC(C)C)c(C)n2)ccn1` [Example 213, (S)-methyl (5-((2-amino-2,4-dimethylpentyl)oxy)-4,6-dimethyl-[2,4′-bipyridin]-2′-yl)carbamate], the half-maximal inhibitory concentration (IC50) worked out at 22 nM.

`Cc1cc(-c2cnc(OC[C@@](C)(N)CC(C)C)c(F)c2)ccn1` [Example 97, (S)-1-((5-fluoro-2′-methyl-[3,4′-bipyridin]-6-yl)oxy)-2,4-dimethylpentan-2-amine] had an IC50 of 142 nM.

`Cc1cc(-c2cc(C(F)(F)F)c(OC[C@@](C)(N)CC(C)C)cn2)ccn1` [Example 144, (S)-2,4-dimethyl-1-((2′-methyl-4-(trifluoromethyl)-[2,4′-bipyridin]-5-yl)oxy)pentan-2-amine] had a half-inhibitory concentration (IC50) of 1.3 nM.

`CC(C)C[C@](C)(N)COc1ccc(-c2ccnc(Cl)c2)nc1C(F)F` [Example 158, (S)-1-((2′-chloro-6-(difluoromethyl)-[2,4′-bipyridin]-5-yl)oxy)-2,4-dimethylpentan-2-amine] returned a 50% inhibitory concentration (IC50) of 5.4 nM.

Take `COC(=O)Nc1cc(-c2ccc(OC[C@@](C)(N)CC(C)C)c(OC(F)(F)F)c2)ccn1` [Example 26, (S)-methyl (4-(4-((2-amino-2,4-dimethylpentyl)oxy)-3-(trifluoromethoxy)phenyl)pyridin-2-yl)carbamate]: the IC50 is 0.69 nM.

`Cc1cc(-c2ccc(OC[C@@H](N)CC(C)C)c(C#N)c2)ccn1` [Example 15, (S)-2-((2-amino-4-methylpentyl)oxy)-5-(2-methylpyridin-4-yl)benzonitrile] yielded a 50% inhibitory concentration (IC50) of 0.81 nM.

Regarding `COC(=O)Nc1nccc(-c2ccc(OC[C@@](C)(N)CC(C)C)c(C#N)c2)c1F` [Example 100, (S)-methyl (4-(4-((2-amino-2,4-dimethylpentyl)oxy)-3-cyanophenyl)-3-fluoropyridin-2-yl)carbamate], the IC50 was determined as 6.8 nM.

In turn, `CC(C)C[C@](C)(N)COc1cnc(-c2ccnc3ccc(F)cc23)cc1C(F)F` [Example 132, (S)-1-((4-(difluoromethyl)-6-(6-fluoroquinolin-4-yl)pyridin-3-yl)oxy)-2,4-dimethylpentan-2-amine] yielded a 50% inhibitory concentration (IC50) of 1.5 nM.

For the molecule `COC(=O)Nc1cc(-c2ccc(OC[C@@](C)(N)CC(C)C)c(Cl)n2)ccn1` [Example 66, (S)-methyl (5-((2-amino-2,4-dimethylpentyl)oxy)-6-chloro-[2,4′-bipyridin]-2′-yl)carbamate], 0.65 nM corresponded to half-maximal inhibition (IC50).

In the case of `COC(=O)Nc1cc(-c2cc(C(F)(F)F)c(OC[C@](C)(N)CC(C)C)cn2)ccn1` [Example 166, (R)-methyl (5-((2-amino-2,4-dimethylpentyl)oxy)-4-(trifluoromethyl)-[2,4′-bipyridin]-2′-yl)carbamate], inhibition was half-maximal at 20 nM (IC50).

`Cc1cc(-c2ccc(OC[C@@](C)(N)CC(C)C)c(S(C)(=O)=O)c2)ccn1` [Example 114, (S)-2,4-dimethyl-1-(4-(2-methylpyridin-4-yl)-2-(methylsulfonyl)phenoxy)pentan-2-amine] displayed an IC50 of 1400 nM. This IC50 is about 70-fold higher than that of the molecule before.

Molecule `Cc1cc(-c2ccc(OC[C@@](C)(N)CC(C)C)c(C(F)F)c2)ccn1` [Example 50, (S)-1-(2-(difluoromethyl)-4-(2-methylpyridin-4-yl)phenoxy)-2,4-dimethylpentan-2-amine] showed a half-maximal inhibitory concentration (IC50) of 0.38 nM. Compared with the last molecule, the IC50 is about 3700-fold lower.

As to `CC(C)C[C@](C)(N)COc1ccc(-c2ncnc3ccccc23)cc1C(F)(F)F` [Example 214, (S)-2,4-dimethyl-1-(4-(quinazolin-4-yl)-2-(trifluoromethyl)phenoxy)pentan-2-amine], the IC50 came to 0.86 nM.

`CCc1cc(-c2cc(C(F)F)c(OC[C@](C)(N)CC(C)C)cn2)ccn1` [Example 170, (R)-1-((4-(difluoromethyl)-2′-ethyl-[2,4′-bipyridin]-5-yl)oxy)-2,4-dimethylpentan-2-amine] showed an IC50 of 285 nM.

For the molecule `Cc1nccc(-c2ccc(OC[C@@](C)(N)CC(C)C)c(C(F)F)n2)c1F` [Example 160, (S)-1-((6-(difluoromethyl)-3′-fluoro-2′-methyl-[2,4′-bipyridin]-5-yl)oxy)-2,4-dimethylpentan-2-amine], the IC50 was 0.8 nM.

In turn, `COC(=O)Nc1cc(-c2ccc(OCC3(CC(C)C)CNC3)c(C)n2)ccn1` [Example 108, methyl (5-((3-isobutylazetidin-3-yl)methoxy)-6-methyl-[2,4′-bipyridin]-2′-yl)carbamate] returned an IC50 of 106 nM. This IC50 lies about 130-fold higher than the previous one.

As for `CC(C)C[C@](C)(O)COc1cnc(-c2ccnc3ccccc23)cc1C(F)F` [Example 176, (S)-1-((4-(difluoromethyl)-6-(quinolin-4-yl)pyridin-3-yl)oxy)-2,4-dimethylpentan-2-ol], the half-inhibitory concentration (IC50) worked out at 53 nM.

In the case of `COC(=O)Nc1cc(-c2ccc(OC[C@@](C)(N)CC(C)C)c(C3CC3)c2)ccn1` [Example 33, (S)-methyl (4-(4-((2-amino-2,4-dimethylpentyl)oxy)-3-cyclopropylphenyl)pyridin-2-yl)carbamate], half-maximal inhibition (IC50) was put at 0.32 nM.

`COC(=O)Nc1cc(-c2cc(C(F)F)c(OC[C@@](C)(O)CC(C)C)cn2)ccn1` [Example 177, (S)-methyl (4-(difluoromethyl)-5-((2-hydroxy-2,4-dimethylpentyl)oxy)-[2,4′-bipyridin]-2′-yl)carbamate] displayed an IC50 of 8.7 nM.

Turning to `CC(C)C[C@](C)(N)COc1ccc(-c2ccnc(C(F)F)c2)cc1C#N` [Example 36, (S)-2-((2-amino-2,4-dimethylpentyl)oxy)-5-(2-(difluoromethyl)pyridin-4-yl)benzonitrile], half-maximal inhibition (IC50) was put at 0.89 nM.

The molecule `CC(=O)Nc1cc(-c2ccc(OC[C@@](C)(N)CC(C)C)c(C(F)F)c2)ccn1` [Example 23, (S)—N-(4-(4-((2-amino-2,4-dimethylpentyl)oxy)-3-(difluoromethyl)phenyl)pyridin-2-yl)acetamide] had a concentration for half-maximal inhibition (IC50) of 0.76 nM.

For `Cc1cc(-c2cc(Cl)c(OC[C@@](C)(N)CC(C)C)cn2)ccn1` [Example 238, (S)-1-((4-chloro-2′-methyl-[2,4′-bipyridin]-5-yl)oxy)-2,4-dimethylpentan-2-amine], the IC50 was found to be 2.1 nM.

The values above are taken from patent US9902722B2, “Biaryl kinase inhibitors” (BRISTOL-MYERS SQUIBB COMPANY, priority 2014, dated 2018).
